Values joined by “and” are separate entries in the source; they are usually repeats but may differ in a detail not shown here. Equal values may be shown once. Inconclusive results are not listed.
Test system: MX-1 breast xenograft, nude mice, tumor weight T/C
Assay: NCI In Vivo Anticancer Drug Screen. Data for tumor model Human Mammary Carcinoma MX-1 Xenograft (intrarenal inoculation) in NU/NU Swiss (nude) mice
Details: endpoint: mean tumor weight change, higher = larger tumour
Summary of the method: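 Antitumour effect measured in vivo against vehicle controls, expressed as T/C.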

[1] = dose: 150.0 mg/kg/injection, schedule: Q04DX003 (sc), vehicle: saline with Tween-80
[2] = dose: 300.0 mg/kg/injection, schedule: Q04DX003 (sc), vehicle: saline with Tween-80
[3] = dose: 600.0 mg/kg/injection, schedule: Q04DX003 (sc), vehicle: saline with Tween-80
[4] = dose: 1200.0 mg/kg/injection, schedule: Q04DX003 (sc), vehicle: saline with Tween-80
[5] = dose: 300.0 mg/kg/injection, schedule: Q04DX003 (sc), vehicle: Klucel (hydroxypropylcellulose) (HPC)
[6] = dose: 600.0 mg/kg/injection, schedule: Q04DX003 (sc), vehicle: Klucel (hydroxypropylcellulose) (HPC)
[7] = dose: 2400.0 mg/kg/injection, schedule: Q04DX003 (sc), vehicle: saline with Tween-80
[8] = dose: 50.0 mg/kg/injection, schedule: Q04DX003 (sc), vehicle: saline with Tween-80
[9] = dose: 100.0 mg/kg/injection, schedule: Q04DX003 (sc), vehicle: saline with Tween-80
[10] = dose: 100.0 mg/kg/injection, schedule: Q04DX003 (sc), vehicle: saline
[11] = dose: 300.0 mg/kg/injection, schedule: Q04DX003 (sc), vehicle: suspension in saline
[12] = dose: 600.0 mg/kg/injection, schedule: Q04DX003 (sc), vehicle: suspension in saline
[13] = dose: 200.0 mg/kg/injection, schedule: Q04DX003 (sc), vehicle: saline with Tween-80
[14] = dose: 400.0 mg/kg/injection, schedule: Q04DX003 (sc), vehicle: saline with Tween-80
[15] = dose: 37.5 mg/kg/injection, schedule: Q04DX003 (sc), vehicle: saline with Tween-80

In the case of `CCOC(=O)c1cn(C)c2c1C(O)=C(C(=O)OC)CC(=O)N2`, the T/C [1] is reported as 95 % of control, the T/C [2] is reported as 80 % of control and the T/C [3] is reported as 85 % of control. The T/C [4] was 90 % of control.
`CC12CC(C(=O)O)C3(O)CC(C)(C1)CC(C)(C2)C3` (centres undefined) (tested in a mixture with another compound) was tested, and the T/C [5] was 87 % of control, the T/C [6] was 168 % of control and the T/C (dose: 1200.0 mg/kg/injection, schedule: Q04DX003 (sc), vehicle: Klucel (hydroxypropylcellulose) (HPC)) was 102 % of control.
With `Cc1oc2c(C)c3oc(=O)cc(C)c3cc2c1CCl` the T/C [2] was 109 % of control, the T/C [3] was 75 % of control and the T/C [4] was 83 % of control. The T/C [7] was 54 % of control.
With `CN=C(N)N/N=C(\c1ccccc1)c1ccc(Br)cc1` the T/C (dose: 25.0 mg/kg/injection, schedule: Q04DX003 (sc), vehicle: saline with Tween-80) was 101 % of control, the T/C [8] was 163 % of control and the T/C [9] was 78 % of control.
In the case of `C[C@]12CCC(=O)C(O)=C1CC[C@@H]1[C@@H]2CC[C@]2(C)C(=O)CC[C@@H]12`, the T/C (dose: 35.0 mg/kg/injection, schedule: Q01DX010 (sc), vehicle: Klucel (hydroxypropylcellulose) (HPC)) is reported as 223 % of control, the T/C (dose: 70.0 mg/kg/injection, schedule: Q01DX010 (sc), vehicle: Klucel (hydroxypropylcellulose) (HPC)) is reported as 112 % of control and the T/C (dose: 280.0 mg/kg/injection, schedule: Q01DX010 (sc), vehicle: Klucel (hydroxypropylcellulose) (HPC)) is reported as 88 % of control.
In the case of `CN1CCN(c2ccc3nc(-c4ccc5nc(-c6ccc(O)cc6)[nH]c5c4)[nH]c3c2)CC1`, the T/C [10] is reported as 69 % of control, the T/C (dose: 225.0 mg/kg/injection, schedule: Q04DX003 (sc), vehicle: saline) is reported as 100 % of control and the T/C (dose: 225.0 mg/kg/injection, schedule: Q04DX003 (sc), vehicle: suspension in saline) is reported as 102 % of control. For the same molecule, the T/C (dose: 250.0 mg/kg/injection, schedule: Q04DX003 (sc), vehicle: suspension in saline) was 67 % of control, the T/C (dose: 400.0 mg/kg/injection, schedule: Q04DX003 (sc), vehicle: saline) was 52 % of control and the T/C (dose: 500.0 mg/kg/injection, schedule: Q04DX003 (sc), vehicle: saline) was 123 % of control. The T/C (dose: 800.0 mg/kg/injection, schedule: Q04DX003 (sc), vehicle: suspension in saline) was 176 % of control, the T/C (dose: 1000.0 mg/kg/injection, schedule: Q04DX003 (sc), vehicle: saline) was 69 % of control and the T/C (dose: 1000.0 mg/kg/injection, schedule: Q04DX003 (sc), vehicle: suspension in saline) was 199 % of control.
In the case of `NC(=O)c1cn(C2OC(CO)C(O)C2O)c2ncnc(N)c12` (centres undefined), the T/C (dose: 1.5 mg/kg/injection, schedule: Q04DX003 (sc), vehicle: saline) is reported as 77 % of control, the T/C (dose: 3.0 mg/kg/injection, schedule: Q04DX003 (sc), vehicle: saline) is reported as 61 % of control and the T/C (dose: 6.0 mg/kg/injection, schedule: Q04DX003 (sc), vehicle: saline) is reported as 40 % of control.
For `CC1=C(C)C(=O)O[C@@H]([C@](C)(O)[C@]2(O)CC[C@@]3(O)[C@@H]4C[C@H]5O[C@]56CC=CC(=O)[C@]6(C)[C@H]4CC[C@]23C)C1`, the T/C (dose: 75.0 mg/kg/injection, schedule: Q04DX003 (sc), vehicle: suspension in saline) was 112 % of control, the T/C (dose: 150.0 mg/kg/injection, schedule: Q04DX003 (sc), vehicle: suspension in saline) was 83 % of control and the T/C [11] was 83 % of control. The T/C [12] was 95 % of control.
For `C[N+](C)(C)c1cc2c(nn1)Nc1ccccc1S2`, the T/C (dose: 50.0 mg/kg/injection, schedule: Q01DX010 (sc), vehicle: Klucel (hydroxypropylcellulose) (HPC)) was 74 % of control and the T/C (dose: 100.0 mg/kg/injection, schedule: Q01DX010 (sc), vehicle: Klucel (hydroxypropylcellulose) (HPC)) was 240 % of control and 272 % of control.
In the case of `c1cc(-c2cc3ccc(C4=NCCN4)cc3[nH]2)ccc1C1=NCCN1`, the T/C (dose: 25.0 mg/kg/injection, schedule: Q04DX003 (sc), vehicle: saline) is reported as 66 % of control, the T/C (dose: 50.0 mg/kg/injection, schedule: Q04DX003 (sc), vehicle: saline) is reported as 73 % of control and the T/C [10] is reported as 50 % of control.
With `Nc1n[n+](-c2ccccc2)no1` the T/C (dose: 18.75 mg/kg/injection, schedule: Q04DX003 (sc), vehicle: water) was 70 % of control, the T/C (dose: 37.5 mg/kg/injection, schedule: Q04DX003 (sc), vehicle: water) was 94 % of control and the T/C (dose: 75.0 mg/kg/injection, schedule: Q04DX003 (sc), vehicle: water) was 59 % of control.
In the case of `Cc1ccc(C2NC(=S)N3C(c4ccc(C)cc4)NC(=S)N23)cc1` (centres undefined), the T/C [5] is reported as 91 % of control, the T/C [6] is reported as 112 % of control and the T/C (dose: 2400.0 mg/kg/injection, schedule: Q04DX003 (sc), vehicle: Klucel (hydroxypropylcellulose) (HPC)) is reported as 89 % of control.
`CCCCOC(=O)/C=C(\Br)C(=O)OCCCC` was tested, and the T/C (dose: 50.0 mg/kg/injection, schedule: Q01DX010 (sc), vehicle: saline with Tween-80) was 102 % of control, the T/C (dose: 100.0 mg/kg/injection, schedule: Q01DX010 (sc), vehicle: saline with Tween-80) was 68 % of control and the T/C (dose: 200.0 mg/kg/injection, schedule: Q01DX010 (sc), vehicle: saline with Tween-80) was 191 % of control. The T/C (dose: 400.0 mg/kg/injection, schedule: Q01DX010 (sc), vehicle: saline with Tween-80) was 205 % of control.
With `COc1cc(OC)c(NC(=O)ON2C(=O)c3ccccc3C2=O)cc1Cl` the T/C [8] was 95 % of control, the T/C [9] was 103 % of control and the T/C [13] was 85 % of control. The T/C [14] was 114 % of control.
`CCOC(=O)CNC(=O)CCCCSc1ncnc2nc[nH]c12` was tested, and the T/C [4] was 109 % of control and the T/C [7] was 86 % of control.
`COc1ccc(S(=O)(=O)N=N/C=C2\C=CC=CN2O)cc1OC` was tested, and the T/C [15] was 81 % of control, the T/C (dose: 75.0 mg/kg/injection, schedule: Q04DX003 (sc), vehicle: saline with Tween-80) was 61 % of control and the T/C [1] was 47 % of control. For the same molecule, the T/C [2] was 64 % of control.
With `Cn1cnc([N+](=O)[O-])c1Sc1ncn[nH]1` the T/C (dose: 100.0 mg/kg/injection, schedule: Q04DX003 (sc), vehicle: suspension in saline) was 72 % of control, the T/C (dose: 200.0 mg/kg/injection, schedule: Q04DX003 (sc), vehicle: suspension in saline) was 95 % of control and the T/C (dose: 400.0 mg/kg/injection, schedule: Q04DX003 (sc), vehicle: suspension in saline) was 92 % of control.
`COc1cc2c3c(cccc3c1)C(=O)N(CCN(C)C)C2=O` was tested, and the T/C [2] was 100 % of control and the T/C [3] was 103 % of control.
For `N=C(N)SCc1c2ccccc2c(CSC(=N)N)c2ccccc12`, the T/C [11] was 93 % of control, the T/C [12] was 152 % of control and the T/C (dose: 1200.0 mg/kg/injection, schedule: Q04DX003 (sc), vehicle: suspension in saline) was 112 % of control. The T/C (dose: 2400.0 mg/kg/injection, schedule: Q04DX003 (sc), vehicle: suspension in saline) was 89 % of control.
With `C[C@@H]1C[C@H]2[C@@H]3CCC4=CC(=O)C=C[C@]4(C)[C@@]3(F)[C@@H](O)C[C@]2(C)[C@@]1(O)C(=O)CO` the T/C (dose: 3.13 mg/kg/injection, schedule: Q01DX010 (sc), vehicle: Klucel (hydroxypropylcellulose) (HPC)) was 44 % of control, the T/C (dose: 6.25 mg/kg/injection, schedule: Q01DX010 (sc), vehicle: Klucel (hydroxypropylcellulose) (HPC)) was 28 % of control and the T/C (dose: 12.5 mg/kg/injection, schedule: Q01DX010 (sc), vehicle: Klucel (hydroxypropylcellulose) (HPC)) was 35 % of control. The T/C (dose: 25.0 mg/kg/injection, schedule: Q01DX010 (sc), vehicle: Klucel (hydroxypropylcellulose) (HPC)) was 33 % of control.
`CCCCCCCCCCCCSC1=C(Cl)C(=O)C(OC)=C(OC)C1=O` was tested, and the T/C [2] was 47 % of control and the T/C [3] was 77 % of control.
With `O=C(O)C1Cc2nc[nH]c2CN1CO` (centres undefined) the T/C [9] was 113 % of control, the T/C [13] was 113 % of control and the T/C [14] was 80 % of control. The T/C (dose: 800.0 mg/kg/injection, schedule: Q04DX003 (sc), vehicle: saline with Tween-80) was 99 % of control.
In the case of `C=C1C(=O)O[C@@H]2[C@H](O)[C@@H](C)[C@@H]3C=CC(=O)[C@@]3(C)[C@H](OC(=O)C=C(C)C)[C@H]12`, the T/C (dose: 9.38 mg/kg/injection, schedule: Q04DX003 (sc), vehicle: saline with Tween-80) is reported as 65 % of control, the T/C (dose: 18.75 mg/kg/injection, schedule: Q04DX003 (sc), vehicle: saline with Tween-80) is reported as 105 % of control and the T/C [15] is reported as 84 % of control.
In the case of `O=C1NC(c2ccccc2)N=C2Oc3ccccc3C=C12` (centres undefined), the T/C (dose: 50.0 mg/kg/injection, schedule: Q01DX008 (sc), vehicle: saline with Tween-80) is reported as 57 % of control, the T/C (dose: 100.0 mg/kg/injection, schedule: Q01DX008 (sc), vehicle: saline with Tween-80) is reported as 71 % of control and the T/C (dose: 200.0 mg/kg/injection, schedule: Q01DX008 (sc), vehicle: saline with Tween-80) is reported as 56 % of control. The T/C (dose: 400.0 mg/kg/injection, schedule: Q01DX008 (sc), vehicle: saline with Tween-80) was 80 % of control.

Source: PubChem BioAssay AID296 (DTP/NCI, 2004)
